According to patent publication US6521634B2, “Uses of dl-THP” (The Hong Kong University of Science & Technology, priority 2001, dated 2003):
Where two headings read alike, the source gives them in different places.

Experiments:
mice = settings: cited from earlier work
ICR mice [1] = assay: Horizontal-wire test; assay type: in vivo; settings: up to 30 mg/kg orally
Procedure: ICR mice of either sex, weighing 14-17 g were used. Animals were housed in groups of four or five and were given food and water ad libitum and maintained on a 11 hour light: 13 hour dark cycle. All of the experimental groups had 12 animals per group. dl-THP was dissolved in double distilled water and administered orally 1 hour before testing at concentrations as detailed below, with a total injection volume of 10 ml/kg. For the control group, double-distilled water was used as the vehicle. The mice are lifted by the tail and allowed to grasp a horizontally strung wire (1 mm diameter, 15 cm long and placed 20 cm above the table) with their forepaws and released (Bonetti E P et al., Psychophannacology (Berl). 1982;78(1):8-18; PMID: 6292984).

α-1 adrenoceptors = settings: rat cerebral cortex; previously performed studies; cited from earlier work
ICR mice [2] = assay: Elevated plus-maze test; assay type: in vivo
Procedure: ICR mice of either sex, weighing 14-17 g were used. Animals were housed in groups of four or five and were given food and water ad libitum and maintained on a 11 hour light: 13 hour dark cycle. All of the experimental groups had 12 animals per group. dl-THP was dissolved in double distilled water and administered orally 1 hour before testing at concentrations as detailed below, with a total injection volume of 10 ml/kg. For the control group, double-distilled water was used as the vehicle. All procedures were carried out in a quiet, air-conditioned laboratory between 08:00 and 13:00 at ambient temperature of 20-22° C. At the end of each session any boluses were removed and the box was thoroughly wiped with 70% ethanol. The elevated plus-maze is made of wood as a horizontal cross consisting of two open arms (25×5 cm) and two opposite arms (25×5 cm) enclosed by 20 cm high walls. The arms extend from a central platform having dimensions of 5×5 cm. The plus-maze is elevated to a height of 40 cm from the floor. The maze is put inside a box with dimensions of 30×30×50 cm. After the hole-board test, the mice are immediately placed on the central platform of the maze facing a closed arm. The number of arm entries and the time spent into the open and closed arm are counted for 5 minutes (Pellow S et al., “Anxiolytic and anxiogenic drug effects on exploratory activity in an elevated plus-maze: a novel test of anxiety in the rat.”, Pharmacol Biochem Behav. March 1986;24(3):525-9; PMID: 2871560). Arm entry was defined as all four feet in the arm. The total number of arm entries provided a measure of general activity. […] The results from the locomotor activity test and the elevated plus-maze test are expressed as mean±standard error of mean (SEM). All data were submitted to analysis of variance (ANOVA). Post hoc comparisons between individual treatments and controls of the locomotor activity test, the hole-board test and the elevated plus-maze test were made using Dunnett's t-test. The level of significance was considered to be p<0.05.

ICR mice [3] = assay: Hole-board test; assay type: in vivo; settings: 5 minute test
Procedure: ICR mice of either sex, weighing 14-17 g were used. Animals were housed in groups of four or five and were given food and water ad libitum and maintained on a 11 hour light: 13 hour dark cycle. All of the experimental groups had 12 animals per group.
dl-THP was dissolved in double distilled water and administered orally 1 hour before testing at concentrations as detailed below, with a total injection volume of 10 ml/kg. For the control group, double-distilled water was used as the vehicle.
All procedures were carried out in a quiet, air-conditioned laboratory between 08:00 and 13:00 at ambient temperature of 20-22° C. At the end of each session any boluses were removed and the box was thoroughly wiped with 70% ethanol.
The hole-board apparatus is a walled wood arena of 60×60×30 cm, with four equidistant 3 cm diameter holes spaced on the floor. The mice are placed on the center of the arena and the number of head-dips on the hole, the time spent head-dipping, the number of rearings and the time spent rearing are counted during a 5 minute test period (File SE et al., “The effects of triazolobenzodiazepines in two animal tests of anxiety and in the holeboard.”, Br J Pharmacol. November 1985;86(3):729-35; PMID: 2866006). After each trial, the floor of the apparatus was wiped and dried thoroughly with tissue to remove traces of the previous path.
The results from the locomotor activity test and the elevated plus-maze test are expressed as mean±standard error of mean (SEM). All data were submitted to analysis of variance (ANOVA). Post hoc comparisons between individual treatments and controls of the locomotor activity test, the hole-board test and the elevated plus-maze test were made using Dunnett's t-test. The level of significance was considered to be p<0.05.

[4] = biological target: BDZ binding site of the GABAA receptor; assay: competitive binding assay with [3H]-flunitrazepam; settings: [3H]-flunitrazepam competition
α-2 adrenoceptors = settings: rat cerebral cortex; previously performed studies; cited from earlier work
rats = settings: rat, in vivo, po; cited from earlier work
ICR mice [5] = assay: Locomotor activity test; assay type: in vivo; settings: 1 hour before 5 minute test
Procedure: ICR mice of either sex, weighing 14-17 g were used. Animals were housed in groups of four or five and were given food and water ad libitum and maintained on a 11 hour light: 13 hour dark cycle. All of the experimental groups had 12 animals per group. dl-THP was dissolved in double distilled water and administered orally 1 hour before testing at concentrations as detailed below, with a total injection volume of 10 ml/kg. For the control group, double-distilled water was used as the vehicle. All procedures were carried out in a quiet, air-conditioned laboratory between 08:00 and 13:00 at ambient temperature of 20-22° C. At the end of each session any boluses were removed and the box was thoroughly wiped with 70% ethanol. The ZIL-2 apparatus (Beijing Institute of Materia Medica) having dimensions of 60×60×12 cm was used to perform this test. It consists of four circular plastic boxes of 25 cm diameter, each having 6 equally distributed infrared photocells. The locomotor activity was counted automatically during a 5 minute test period. A decrease in the number of transitions reflects a decrease in locomotor activity. The results from the locomotor activity test and the elevated plus-maze test are expressed as mean±standard error of mean (SEM). All data were submitted to analysis of variance (ANOVA). Post hoc comparisons between individual treatments and controls of the locomotor activity test, the hole-board test and the elevated plus-maze test were made using Dunnett's t-test. The level of significance was considered to be p<0.05.

[6] = 1, 10 and 30 mg/kg orally, dose-dependent, 5 minute test

Q: With `COc1cc2c(cc1OC)C1Cc3ccc(OC)c(OC)c3CN1CC2` (racemic) [dl-THP, 5,8,18,13a-tetrahydro-2,3,9,10-tetramethoxy-6H-dibenzo [a,q] quinolizine] as the compound, how does the LD50 (mice; mice, sub-cutaneous administration) read?
A: Its LD50 is 670 mg/kg.

Q: What about the LD50 (mice; mouse, in vivo, po) of the same compound?
A: Its LD50 is 1160 mg/kg.

Q: And the “muscle-relaxant effect, grasping of horizontal wire” value (ICR mice [1])?
A: The value was “without effect”.

Q: What about the Ki (α-1 adrenoceptors) of the same compound?
A: Its Ki is 4.7 µM.

Q: What about the “open arm parameters versus controls (Dunnett's test)” value (ICR mice [2]; 1 mg/kg orally) of the same compound?
A: Its value is “significantly differed from controls”.

Q: And the “total number of arm entries” value (ICR mice [2]; 1, 10 and 30 mg/kg orally, 5 minute test)?
A: The value was “did not significantly alter”.

Q: And the “percentage of open arm entries” value (ICR mice [2]; [6])?
A: Its value is “significantly elevated”.

Q: And the “percentage of time spent on the open arms” value (ICR mice [2]; [6])?
A: Its value is “significantly elevated”.

Q: And the “number of head-dips (Dunnett's test)” value (ICR mice [3]; 10 mg/kg orally)?
A: The value was “significantly reduced”.

Q: And the number of head-dips (ICR mice [3]; 30 mg/kg orally)?
A: The number of head-dips was “significantly reduced”.

Q: What about the time spent head-dipping (ICR mice [3]; 30 mg/kg orally) of the same compound?
A: Its time spent head-dipping is “significantly reduced”.

Q: What about the IC50 ([4]; read-out: IC50, inhibition of binding of [3H]-flunitrazepam to the BDZ binding site of the GABAA receptor) of the same compound?
A: Its IC50 is 836 µM.

Q: What about the Ki ([4]; read-out: Ki, inhibition of binding of [3H]-flunitrazepam to the BDZ binding site of the GABAA receptor) of the same compound?
A: Its Ki is 518 µM.

Q: And the Ki (α-2 adrenoceptors)?
A: Its Ki is 4.97 µM.

Q: And the LD50 (rats)?
A: The LD50 was 930 mg/kg.

Q: And the “reduction of locomotor activity” value (ICR mice [5]; 1 mg/kg orally)?
A: Its value is 33%.

Q: And the “reduction of locomotor activity” value (ICR mice [5]; 10 mg/kg orally)?
A: Its value is 33%.

Q: What about the “reduction of locomotor activity” value (ICR mice [5]; 30 mg/kg orally) of the same compound?
A: Its value is 36%.
